From patent US4287186A, “Antibiotics, a process for their preparation and their use as plant protection agents” (Bayer Aktiengesellschaft, priority 1979, dated 1981)

Key:
[1] = tested on: Megoura viciae (vetch aphid); conditions: in vivo
Protocol: The tests with Megoura viciae were carried out on potted field bean plants (Vicia faba, variety "Saxa") under laboratory conditions. The test animals were transferred to the test plants only after the plants had been treated and the spray coating had dried on. The tests were as a rule evaluated 5 days after the start of the test, calculated from the time at which the test animals were introduced.

[2] = type: physicochemical
Excerpt: (e) Thin layer chromatography: Three ninhydrin-positive spots, of which, in each case, only one spot corresponds to the substances which is active in the bioautogram, are found in all the solvent systems used which contain acetic acid. This fact could be ascribed to the lability of the antibiotic in acetic acid solution. In neutral solvent systems, only one ninhydrin-positive spot is found in each case.

For Nikkomycin, the “mortality of the larvae which had developed normally during the ecdysis stages” value [1] was “more than 90%” and the “stability in acetic acid solution” value [2] was “lability”.
